Eight compounds from ChEMBL document CHEMBL5291721, “A preclinical secondary pharmacology resource illuminates target-adverse drug reaction associations of marketed drugs” (Nat Commun, 2023) can be followed below.

The structures appear in SMILES notation.

The target of experiment [1] is T1, Amine oxidase [flavin-containing] A (Homo sapiens, UniProt P21397).
T1 sequence (P21397 whole entry): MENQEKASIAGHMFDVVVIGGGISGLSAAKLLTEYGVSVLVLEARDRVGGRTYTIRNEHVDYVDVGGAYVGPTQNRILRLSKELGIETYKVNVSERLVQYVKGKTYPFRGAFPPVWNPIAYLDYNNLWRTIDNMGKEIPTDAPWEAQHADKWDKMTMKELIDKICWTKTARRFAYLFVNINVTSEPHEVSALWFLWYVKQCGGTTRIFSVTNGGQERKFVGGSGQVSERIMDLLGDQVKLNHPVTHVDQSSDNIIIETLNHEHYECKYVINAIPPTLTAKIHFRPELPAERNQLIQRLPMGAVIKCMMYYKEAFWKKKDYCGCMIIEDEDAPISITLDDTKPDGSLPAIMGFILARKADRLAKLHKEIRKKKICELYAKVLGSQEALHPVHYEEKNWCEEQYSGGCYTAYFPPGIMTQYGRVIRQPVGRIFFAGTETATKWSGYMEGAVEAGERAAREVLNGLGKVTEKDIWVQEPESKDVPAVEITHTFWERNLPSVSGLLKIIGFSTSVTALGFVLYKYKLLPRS
The format is functional.

Experiment [2] deals with T2, Alpha-2A adrenergic receptor (Homo sapiens, UniProt P08913).
T2 sequence (P08913 whole entry): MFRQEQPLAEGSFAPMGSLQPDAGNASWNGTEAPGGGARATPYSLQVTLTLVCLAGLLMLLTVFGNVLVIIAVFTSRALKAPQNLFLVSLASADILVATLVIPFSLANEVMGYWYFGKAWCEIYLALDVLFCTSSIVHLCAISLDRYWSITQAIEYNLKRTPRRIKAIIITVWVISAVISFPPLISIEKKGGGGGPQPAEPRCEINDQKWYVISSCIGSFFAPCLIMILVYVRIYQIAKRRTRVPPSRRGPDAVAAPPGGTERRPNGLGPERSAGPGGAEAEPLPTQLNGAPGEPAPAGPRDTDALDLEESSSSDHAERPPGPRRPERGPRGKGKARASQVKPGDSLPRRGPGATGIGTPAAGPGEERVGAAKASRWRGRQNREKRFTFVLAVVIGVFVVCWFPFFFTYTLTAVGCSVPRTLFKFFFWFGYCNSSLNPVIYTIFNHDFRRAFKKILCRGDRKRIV

In experiment [3] the target is T3, Neuropeptide Y receptor type 1 (Homo sapiens, UniProt P25929).
T3 sequence (P25929 whole entry): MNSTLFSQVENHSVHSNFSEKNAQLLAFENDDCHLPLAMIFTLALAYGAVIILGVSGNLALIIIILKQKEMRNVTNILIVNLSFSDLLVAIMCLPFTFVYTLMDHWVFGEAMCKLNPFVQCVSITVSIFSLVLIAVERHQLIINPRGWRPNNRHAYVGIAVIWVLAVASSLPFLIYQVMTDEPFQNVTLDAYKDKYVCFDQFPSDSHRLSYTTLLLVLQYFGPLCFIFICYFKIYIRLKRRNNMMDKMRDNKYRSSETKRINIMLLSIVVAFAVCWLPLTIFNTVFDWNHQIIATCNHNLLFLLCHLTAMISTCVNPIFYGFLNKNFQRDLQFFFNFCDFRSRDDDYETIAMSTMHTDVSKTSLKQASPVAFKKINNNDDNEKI

The next experiment addresses D(3) dopamine receptor (Homo sapiens, UniProt P35462).
A further experiment deals with Acetylcholinesterase (Homo sapiens, UniProt P22303). The class given is functional.
For experiment [4], the target named is T4, Gamma-aminobutyric acid receptor subunit alpha-1 (Rattus norvegicus, UniProt P62813).
Experiment [5] addresses Sodium-dependent noradrenaline transporter (Homo sapiens, UniProt P23975).
The target of experiment [6] is Sodium-dependent dopamine transporter (Homo sapiens, UniProt Q01959).
Another experiment has as its target D(1A) dopamine receptor (Homo sapiens, UniProt P21728).
For experiment [7], the target named is Delta-type opioid receptor (Homo sapiens, UniProt P41143).
The target in experiment [8] is T4, Gamma-aminobutyric acid receptor subunit alpha-1. This is another data set of the same source.
Experiment [9] deals with Gamma-aminobutyric acid receptor subunit alpha-1/alpha-2/beta-2/gamma-2 (Homo sapiens, UniProt P14867+P18507+P47869+P47870). The format is protein-complex assay.
Also: assay procedure not described here.

Chain of D(3) dopamine receptor (P35462 whole entry): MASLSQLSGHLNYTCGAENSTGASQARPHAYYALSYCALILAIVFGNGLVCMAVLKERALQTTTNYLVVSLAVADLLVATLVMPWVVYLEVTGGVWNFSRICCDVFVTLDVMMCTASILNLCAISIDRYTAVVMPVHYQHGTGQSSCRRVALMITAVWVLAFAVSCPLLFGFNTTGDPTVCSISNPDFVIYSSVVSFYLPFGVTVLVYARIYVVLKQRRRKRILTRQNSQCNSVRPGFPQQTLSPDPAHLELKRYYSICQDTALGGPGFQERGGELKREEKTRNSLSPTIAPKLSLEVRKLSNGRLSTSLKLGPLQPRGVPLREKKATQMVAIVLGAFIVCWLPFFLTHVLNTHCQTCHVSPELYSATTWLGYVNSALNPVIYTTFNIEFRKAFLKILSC
Chain of Sodium-dependent noradrenaline transporter (P23975 whole entry): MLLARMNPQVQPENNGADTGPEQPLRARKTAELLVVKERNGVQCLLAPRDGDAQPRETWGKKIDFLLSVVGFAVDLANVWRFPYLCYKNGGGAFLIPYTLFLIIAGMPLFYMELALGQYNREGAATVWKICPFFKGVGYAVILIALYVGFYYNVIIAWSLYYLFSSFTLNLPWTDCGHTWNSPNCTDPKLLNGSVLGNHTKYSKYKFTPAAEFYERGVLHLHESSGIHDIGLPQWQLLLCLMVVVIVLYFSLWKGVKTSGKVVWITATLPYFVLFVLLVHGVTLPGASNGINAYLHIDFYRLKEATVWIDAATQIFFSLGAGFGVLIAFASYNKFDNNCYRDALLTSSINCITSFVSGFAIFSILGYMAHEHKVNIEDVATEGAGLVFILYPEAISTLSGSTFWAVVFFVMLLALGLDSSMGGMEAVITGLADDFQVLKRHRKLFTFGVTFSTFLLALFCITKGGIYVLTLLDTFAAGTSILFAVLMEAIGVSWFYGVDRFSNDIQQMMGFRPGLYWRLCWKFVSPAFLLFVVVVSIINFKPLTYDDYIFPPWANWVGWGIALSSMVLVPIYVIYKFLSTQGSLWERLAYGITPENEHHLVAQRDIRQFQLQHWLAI
Chain of Acetylcholinesterase (P22303 whole entry): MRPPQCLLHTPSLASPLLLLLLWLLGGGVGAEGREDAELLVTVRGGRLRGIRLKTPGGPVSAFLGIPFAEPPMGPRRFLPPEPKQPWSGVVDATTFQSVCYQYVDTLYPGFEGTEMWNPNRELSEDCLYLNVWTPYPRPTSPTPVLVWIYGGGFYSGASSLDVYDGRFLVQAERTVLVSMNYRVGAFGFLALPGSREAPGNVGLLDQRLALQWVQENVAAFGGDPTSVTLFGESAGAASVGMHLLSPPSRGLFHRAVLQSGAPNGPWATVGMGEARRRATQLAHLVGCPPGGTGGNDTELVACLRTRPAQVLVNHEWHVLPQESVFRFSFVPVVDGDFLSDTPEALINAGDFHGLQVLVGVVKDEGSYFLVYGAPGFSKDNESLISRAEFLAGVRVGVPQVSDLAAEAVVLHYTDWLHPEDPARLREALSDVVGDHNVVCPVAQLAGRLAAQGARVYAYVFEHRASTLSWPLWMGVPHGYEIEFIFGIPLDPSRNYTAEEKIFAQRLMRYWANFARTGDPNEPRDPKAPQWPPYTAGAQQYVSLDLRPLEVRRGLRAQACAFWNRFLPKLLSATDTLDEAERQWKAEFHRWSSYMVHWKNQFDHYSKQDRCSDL
Chain of Sodium-dependent dopamine transporter (Q01959 whole entry): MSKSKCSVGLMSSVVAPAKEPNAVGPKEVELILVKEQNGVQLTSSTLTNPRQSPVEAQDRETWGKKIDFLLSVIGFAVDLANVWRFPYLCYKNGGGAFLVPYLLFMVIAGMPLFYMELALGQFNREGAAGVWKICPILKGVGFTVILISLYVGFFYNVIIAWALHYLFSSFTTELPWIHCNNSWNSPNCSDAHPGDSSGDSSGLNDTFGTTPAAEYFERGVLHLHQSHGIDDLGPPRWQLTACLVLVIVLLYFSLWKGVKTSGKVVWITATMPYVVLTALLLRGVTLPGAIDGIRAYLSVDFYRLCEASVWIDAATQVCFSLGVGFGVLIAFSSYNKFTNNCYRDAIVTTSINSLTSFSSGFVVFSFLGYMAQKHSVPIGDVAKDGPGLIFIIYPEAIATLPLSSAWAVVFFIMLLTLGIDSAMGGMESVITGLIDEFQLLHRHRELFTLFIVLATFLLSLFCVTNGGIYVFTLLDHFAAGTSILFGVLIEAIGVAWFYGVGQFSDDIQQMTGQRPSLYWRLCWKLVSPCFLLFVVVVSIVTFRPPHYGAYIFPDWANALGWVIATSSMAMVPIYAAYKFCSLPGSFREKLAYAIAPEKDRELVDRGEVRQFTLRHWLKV
T4 sequence (P62813 whole entry): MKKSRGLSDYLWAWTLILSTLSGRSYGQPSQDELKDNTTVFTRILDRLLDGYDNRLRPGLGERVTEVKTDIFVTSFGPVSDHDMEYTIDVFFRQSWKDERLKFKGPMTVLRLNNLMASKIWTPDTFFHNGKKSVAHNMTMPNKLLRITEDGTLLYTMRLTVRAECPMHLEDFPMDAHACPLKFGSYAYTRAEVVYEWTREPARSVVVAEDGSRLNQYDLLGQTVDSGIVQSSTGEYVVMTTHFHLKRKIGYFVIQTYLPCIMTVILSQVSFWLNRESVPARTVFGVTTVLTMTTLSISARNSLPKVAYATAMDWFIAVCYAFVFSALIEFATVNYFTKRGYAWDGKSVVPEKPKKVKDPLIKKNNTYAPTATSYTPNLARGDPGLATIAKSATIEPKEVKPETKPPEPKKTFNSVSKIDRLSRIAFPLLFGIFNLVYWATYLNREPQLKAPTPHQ
Chain of D(1A) dopamine receptor (P21728 whole entry): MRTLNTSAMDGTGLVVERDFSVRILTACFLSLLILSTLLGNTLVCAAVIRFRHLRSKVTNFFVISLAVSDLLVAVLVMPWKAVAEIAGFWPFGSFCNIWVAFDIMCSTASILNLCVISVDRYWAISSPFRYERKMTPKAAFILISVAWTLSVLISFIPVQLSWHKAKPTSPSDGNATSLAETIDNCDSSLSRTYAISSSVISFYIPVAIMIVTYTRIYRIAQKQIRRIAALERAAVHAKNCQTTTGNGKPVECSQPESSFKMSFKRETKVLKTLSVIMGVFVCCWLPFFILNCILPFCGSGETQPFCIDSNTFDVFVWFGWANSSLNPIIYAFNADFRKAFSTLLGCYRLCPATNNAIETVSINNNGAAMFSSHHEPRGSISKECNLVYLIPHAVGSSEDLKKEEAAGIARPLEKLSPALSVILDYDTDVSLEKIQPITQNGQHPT
Chain of Delta-type opioid receptor (P41143 whole entry): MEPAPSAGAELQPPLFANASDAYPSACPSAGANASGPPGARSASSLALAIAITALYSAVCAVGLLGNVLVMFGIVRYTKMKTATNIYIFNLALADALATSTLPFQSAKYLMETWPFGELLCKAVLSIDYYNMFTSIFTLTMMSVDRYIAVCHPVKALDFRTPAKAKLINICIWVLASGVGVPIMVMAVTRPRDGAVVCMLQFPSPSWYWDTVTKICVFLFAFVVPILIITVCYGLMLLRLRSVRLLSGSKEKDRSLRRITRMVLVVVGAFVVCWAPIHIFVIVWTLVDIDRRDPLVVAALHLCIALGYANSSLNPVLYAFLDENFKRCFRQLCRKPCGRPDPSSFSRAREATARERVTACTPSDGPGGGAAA

In the case of `CCC(CC)(CC(=O)Nc1cccc(/C=C/c2nc(C3CCC3)cs2)c1)C(=O)O`, the AC50 (in [1]; in experiment [2]; in experiment [3]; at D(3) dopamine receptor; on Acetylcholinesterase; in experiment [4]) was over 30 µM in each case. The AC50 (in [5]; in experiment [6]; on D(1A) dopamine receptor) was over 30 µM throughout.

`CCCCCNC(=N)N/N=C/c1c[nH]c2ccc(OC)cc12` [TEGASEROD]: the AC50 in experiment [1] was 23.6 µM; in experiment [2], 0.92 µM; in experiment [3], 11.4 µM; on D(3) dopamine receptor, 5.62 µM; at Acetylcholinesterase, over 30 µM; in experiment [7], over 30 µM. In addition, the AC50 in [4] was over 30 µM; in experiment [5], 0.26 µM; in experiment [6], 1.85 µM; in experiment [8], over 30 µM; on D(1A) dopamine receptor, 0.73 µM.

Consider `O=[N+]([O-])O[C@@H]1CO[C@H]2[C@@H]1OC[C@@H]2O` [ISOSORBIDE MONONITRATE], for which the AC50 (in experiment [1]; in experiment [2]; in experiment [3]; on D(3) dopamine receptor; on Acetylcholinesterase; in [7]) was over 30 µM each time. Further, the AC50 was over 30 µM in experiment [4]; over 30 µM in experiment [5]; over 30 µM in experiment [6]; over 10 µM in experiment [8]; over 30 µM at D(1A) dopamine receptor.

For the compound `COc1ccc2c(c1)N(C[C@H](C)CN(C)C)c1ccccc1S2` [LEVOMEPROMAZINE], the AC50 was over 30 µM in [1]; over 30 µM in experiment [9]; 0.019 µM at D(3) dopamine receptor; over 30 µM at Acetylcholinesterase; over 30 µM in [5].

Turning to `COc1ccc(C(=O)Nc2ccccc2CCC2CCCCN2C)cc1` (stereo not drawn) [ENCAINIDE], the AC50 (in experiment [1]; in experiment [2]; in [3]; at D(3) dopamine receptor; at Acetylcholinesterase; in [7]) was over 30 µM throughout. Also, the AC50 is over 30 µM in experiment [4]; over 30 µM in [5]; over 30 µM in experiment [6]; over 10 µM in experiment [8]; 26.9 µM on D(1A) dopamine receptor.

For the compound `COC1=C(OC)C(=O)C(C/C=C(\C)CC/C=C(\C)CC/C=C(\C)CC/C=C(\C)CC/C=C(\C)CC/C=C(\C)CC/C=C(\C)CC/C=C(\C)CC/C=C(\C)CCC=C(C)C)=C(C)C1=O` [UBIDECARENONE], the AC50 (in [1]; in experiment [2]; on D(3) dopamine receptor; at Acetylcholinesterase; in experiment [7]; in [4]) was over 30 µM each time. Moreover, the AC50 (in [5]; in experiment [6]; in experiment [8]; at D(1A) dopamine receptor) was over 30 µM each time.

As to `Cc1oc(=O)oc1CN1CCN(c2cc3c(cc2F)c(=O)c(C(=O)O)c2n3C(C)S2)CC1` (stereo not drawn) [PRULIFLOXACIN], the AC50 (in experiment [1]; in experiment [2]; at D(3) dopamine receptor; at Acetylcholinesterase; in experiment [7]; in [4]) was over 30 µM each time. In addition, the AC50 (in experiment [5]; in experiment [6]; in [8]; on D(1A) dopamine receptor) was over 30 µM in each case.

As to `CC[C@H]1CN2CCc3cc(OC)c(OC)cc3[C@@H]2C[C@@H]1C[C@H]1NCCc2cc(OC)c(OC)cc21` [EMETINE], the concentration at half-maximal activity (AC50) is over 30 µM in experiment [1]; 0.09 µM in experiment [2]; over 30 µM in [3]; over 30 µM at D(3) dopamine receptor; over 30 µM at Acetylcholinesterase; over 30 µM in experiment [7]. Further, the AC50 in experiment [4] was over 30 µM; in experiment [5], over 30 µM; in experiment [6] it was over 30 µM; in experiment [8], over 30 µM; on D(1A) dopamine receptor, 15.7 µM.
